Here are results for 12 compounds from ChEMBL document CHEMBL1201862, “PubChem BioAssay data set” (2004).

Among the test systems are NCI-H23; OVCAR-5; DLD-1; KM12; COLO 205; ACHN; UACC-257; LOX IMVI; SF-268; SK-OV-3; EKVX; NCI-H460; 786-0; CCRF-CEM; CAKI-1; NCI-H226; MCF7; T47D; BT-549; DU-145.
What all share (assay): inhibition of tumour cell growth, NCI panel, 48 h

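Tested at 5 concentrations; 48 h exposure; 96-well plates; endpoints linearly interpolated, else capped at highest concentration. Abbreviation: GI50, concentration required for 50% inhibition of growth.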 The source made the active and inactive calls. Cut-off read from the data, not from the text of the source: active = GI50 up to about 1.1 µM and inactive = higher.

For the compound `COC(=O)CCC1(NS(=O)(=O)c2ccc(C)cc2)CCC(C(C)(C)C)CC1` (stereo not drawn), the GI50 in the assay on NCI-H23 was 9.71 µM (inactive); with OVCAR-5, 16.3 µM (inactive); in the assay on DLD-1 it was 17 µM (inactive); in the assay on KM12, 13.1 µM (inactive); with COLO 205 it was 13.4 µM (inactive); in the assay on ACHN, > 10 µM (inactive). Moreover, the GI50 is 6.95 µM (inactive) in the assay with UACC-257; 17.3 µM (inactive) with LOX IMVI; > 10 µM (inactive) in the assay on SF-268; 40.6 µM (inactive) in the assay with SK-OV-3; > 10 µM (inactive) with EKVX; 31.2 µM (inactive) with NCI-H460. Moreover, the GI50 in the assay with 786-0 is 14.4 µM (inactive); in the assay with CCRF-CEM, 9.89 µM (inactive); with CAKI-1, 13.6 µM (inactive).
Take `COc1cc(CNc2ccc(C(C)C)cc2)cc(OC)c1OC`: the GI50 in the assay on NCI-H23 was 20.1 µM (inactive); in the assay with OVCAR-5, 24.8 µM (inactive); in the assay with DLD-1, 24 µM (inactive); in the assay with KM12, 18.5 µM (inactive); in the assay with ACHN, 21.8 µM (inactive); with UACC-257, 25.8 µM (inactive). Moreover, the GI50 in the assay with LOX IMVI was 16.2 µM (inactive); with SF-268, 54.7 µM (inactive); in the assay with SK-OV-3, 17.6 µM (inactive); in the assay with EKVX, 51.8 µM (inactive); with NCI-H460, 13.4 µM (inactive); in the assay on 786-0 it was 15.4 µM (inactive). Moreover, the GI50 in the assay on CCRF-CEM was 19 µM (inactive).
As to `O=C(N/C(=C\c1ccc([N+](=O)[O-])cc1)c1nc2ccccc2[nH]1)c1ccccc1`, the GI50 in the assay on NCI-H23, in the assay on OVCAR-5, with DLD-1, in the assay with KM12, with COLO 205 and with ACHN was > 100 µM (inactive) each time. Besides, the GI50 with UACC-257, with SF-268, in the assay with EKVX, in the assay with NCI-H460 and in the assay on 786-0 was > 100 µM (inactive) throughout.
For the compound `O=C1CC2CCCCC2=C1O` (stereo not drawn), the GI50 with NCI-H23, in the assay on OVCAR-5, in the assay on DLD-1, with KM12, in the assay on COLO 205 and with ACHN was > 100 µM (inactive) throughout. In addition, the GI50 in the assay with UACC-257, in the assay with LOX IMVI, in the assay on SF-268, with SK-OV-3, with EKVX and with NCI-H460 was > 100 µM (inactive) throughout. In addition, the GI50 in the assay on 786-0, in the assay on CCRF-CEM and in the assay on CAKI-1 was > 100 µM (inactive) in each case.
Regarding `CCCCCCCC(=O)OC[C@H](C[As](=O)(O)O)OC(=O)CCCCCCC`, the GI50 is 14.3 µM (inactive) with NCI-H23; 14.1 µM (inactive) in the assay on DLD-1; 5.9 µM (inactive) in the assay on NCI-H226; 15.1 µM (inactive) in the assay on COLO 205; 10.7 µM (inactive) in the assay with ACHN; 12.8 µM (inactive) in the assay on UACC-257. In addition, the GI50 in the assay on SF-268 is 1.82 µM (inactive); in the assay with SK-OV-3, 15 µM (inactive); in the assay with EKVX it was 21.1 µM (inactive); with 786-0, 13.4 µM (inactive); with CCRF-CEM it was 1.95 µM (inactive).
Turning to `C=C1CC/C=C(\C)CCC[C@H](C)[C@@H](O)[C@@H]2OC(=O)C(=C)[C@@H]2C[C@H]1O`, the GI50 was 12.5 µM (inactive) in the assay with NCI-H23; 17.3 µM (inactive) in the assay on OVCAR-5; 15 µM (inactive) in the assay on KM12; 4.05 µM (inactive) in the assay on NCI-H226; 4 µM (inactive) in the assay with MCF7; 2.83 µM (inactive) in the assay with COLO 205. In addition, the GI50 is 2.73 µM (inactive) with ACHN; 9.77 µM (inactive) with UACC-257; 3.69 µM (inactive) with LOX IMVI; 8.26 µM (inactive) in the assay with SF-268; 8.24 µM (inactive) in the assay on T47D; 29.8 µM (inactive) in the assay on SK-OV-3. Moreover, the GI50 was 5.73 µM (inactive) in the assay on EKVX; 8.99 µM (inactive) with NCI-H460; 3.8 µM (inactive) in the assay with 786-0; 1.14 µM (inactive) in the assay with CCRF-CEM; 0.288 µM (active) with BT-549; 3.94 µM (inactive) in the assay on CAKI-1. For the same compound, the GI50 in the assay on DU-145 was 4.57 µM (inactive).
Take `O=CC(I)=C(c1ccccc1)c1ccccc1`: the GI50 was 19.6 µM (inactive) in the assay with NCI-H23; 21.8 µM (inactive) in the assay on OVCAR-5; 15 µM (inactive) with KM12; 23.8 µM (inactive) with NCI-H226; 16.3 µM (inactive) in the assay with MCF7; 18.3 µM (inactive) in the assay on COLO 205. In addition, the GI50 in the assay on ACHN is 20.7 µM (inactive); with UACC-257 it was 20.4 µM (inactive); in the assay with LOX IMVI, 9.51 µM (inactive); in the assay with SF-268, 21.3 µM (inactive); in the assay on T47D, 13.3 µM (inactive); in the assay on SK-OV-3 it was 13.6 µM (inactive). Further, the GI50 in the assay with EKVX was 18.9 µM (inactive); in the assay with NCI-H460 it was 17.5 µM (inactive); with 786-0, 14.8 µM (inactive); in the assay with CCRF-CEM it was 15.3 µM (inactive); with BT-549, 15.1 µM (inactive); in the assay with CAKI-1, 16.2 µM (inactive). The GI50 in the assay with DU-145 is 15.2 µM (inactive).
Consider `COc1ccc(/C=C(/C#N)C(N)=O)c(OC)c1`, for which the GI50 in the assay on NCI-H23 is > 100 µM (inactive); in the assay with OVCAR-5, > 100 µM (inactive); in the assay with KM12, > 100 µM (inactive); in the assay on NCI-H226, > 100 µM (inactive); with MCF7, 44 µM (inactive); in the assay on COLO 205 it was > 100 µM (inactive). Also, the GI50 with ACHN was > 100 µM (inactive); in the assay with UACC-257, 89.5 µM (inactive); in the assay with LOX IMVI, > 100 µM (inactive); with SF-268 it was > 100 µM (inactive); in the assay on T47D, > 100 µM (inactive); in the assay with SK-OV-3, > 100 µM (inactive). The GI50 with EKVX was > 100 µM (inactive); with NCI-H460 it was > 100 µM (inactive); in the assay on 786-0, > 100 µM (inactive); in the assay with CCRF-CEM, 26.8 µM (inactive); in the assay with BT-549, > 100 µM (inactive); in the assay on CAKI-1, > 100 µM (inactive). In addition, the GI50 in the assay with DU-145 is > 100 µM (inactive).
Regarding `FC(F)(F)c1ccccc1N1CCN(c2nc(-c3cccs3)nc3ccc(Br)cc23)CC1`, the GI50 was 34.4 µM (inactive) in the assay on NCI-H23; 27.6 µM (inactive) with OVCAR-5; 13.4 µM (inactive) in the assay on KM12; 30.8 µM (inactive) with NCI-H226; 1.06 µM (active) in the assay on MCF7; 23.4 µM (inactive) in the assay on COLO 205. Further, the GI50 in the assay on ACHN is 36.6 µM (inactive); with UACC-257 it was 37.6 µM (inactive); in the assay with LOX IMVI, 34.7 µM (inactive); with SF-268, 48.8 µM (inactive); with T47D, 2.37 µM (inactive); in the assay with SK-OV-3, 57.3 µM (inactive). In addition, the GI50 was 24.4 µM (inactive) in the assay with EKVX; 27.7 µM (inactive) in the assay with NCI-H460; 38.2 µM (inactive) in the assay on 786-0; 0.581 µM (active) in the assay on CCRF-CEM; 50 µM (inactive) in the assay with BT-549; 21.6 µM (inactive) in the assay with CAKI-1. Also, in the assay on DU-145, the GI50 is 63.4 µM (inactive).
With `Nc1ncnn2c(C3OC(CO)C(O)C3O)ccc12` (stereo not drawn), the GI50 with NCI-H23 was 0.137 µM (active); in the assay with OVCAR-5, 0.338 µM (active); in the assay with KM12, 0.107 µM (active); in the assay on NCI-H226, 0.235 µM (active); in the assay with MCF7, 0.164 µM (active); with COLO 205 it was 0.188 µM (active). Besides, the GI50 in the assay with ACHN was 0.17 µM (active); in the assay on UACC-257, 0.0703 µM (active); in the assay on LOX IMVI it was 0.0201 µM (active); with SF-268, 0.236 µM (active); with T47D, 0.291 µM (active); in the assay on SK-OV-3 it was 0.226 µM (active). Also, the GI50 with EKVX was 0.366 µM (active); with NCI-H460 it was 0.097 µM (active); in the assay on 786-0, 0.0766 µM (active); in the assay with CCRF-CEM it was 0.144 µM (active); in the assay on BT-549, 0.175 µM (active); in the assay with CAKI-1, 0.235 µM (active). Moreover, the GI50 in the assay with DU-145 is 0.23 µM (active).
Regarding `CCOC1C=CC(=O)C(CO)O1` (stereo not drawn), the GI50 in the assay with NCI-H23 is 12.6 µM (inactive); in the assay on OVCAR-5, 18.1 µM (inactive); in the assay on KM12, 16.4 µM (inactive); with NCI-H226, 24 µM (inactive); in the assay on MCF7, 4.68 µM (inactive); in the assay with COLO 205, 13.4 µM (inactive). For the same compound, the GI50 was 10.8 µM (inactive) in the assay with ACHN; 5.86 µM (inactive) in the assay with UACC-257; 5.58 µM (inactive) in the assay on LOX IMVI; 14.1 µM (inactive) in the assay on SF-268; 8.81 µM (inactive) in the assay with T47D; 18.8 µM (inactive) in the assay on SK-OV-3. Besides, the GI50 in the assay on EKVX is 14.3 µM (inactive); in the assay with NCI-H460 it was 14.5 µM (inactive); in the assay with 786-0, 4.26 µM (inactive); in the assay with CCRF-CEM, 1.88 µM (inactive); in the assay with BT-549, 11.6 µM (inactive); in the assay on CAKI-1 it was 13.4 µM (inactive). Moreover, in the assay with DU-145, the GI50 is 15.8 µM (inactive).
On to `CC[C@H](C)[C@H]1NC(=O)[C@@H](NC(=O)[C@@H](CC(C)C)N(C)C(=O)C2CCCN2C(=O)[C@H](C)O)[C@@H](C)OC(=O)[C@H](Cc2ccccc2)N(C)C(=O)[C@@H]2CCCN2C(=O)[C@H](CC(C)C)NC(=O)[C@@H](C)C(=O)[C@H](C(C)C)OC(=O)C[C@@H]1O` (stereo partly drawn), for which the GI50 in the assay on NCI-H23, with OVCAR-5, in the assay on KM12, in the assay with NCI-H226, with MCF7 and in the assay with COLO 205 was < 0.00625 µM (active) in each case. Moreover, the GI50 in the assay with ACHN, in the assay on UACC-257, with LOX IMVI, in the assay with SF-268, in the assay on T47D and in the assay with SK-OV-3 was < 0.00625 µM (active) throughout. The GI50 in the assay with EKVX, in the assay on NCI-H460, with 786-0, in the assay with CCRF-CEM, with BT-549 and with CAKI-1 was < 0.00625 µM (active) each time. Besides, the GI50 in the assay on DU-145 was < 0.00625 µM (active).
